According to patent US11629143B2, “HipK4 inhibitors and uses thereof” (Vibliome Therapeutics, LLC, priority 2020, dated 2023):

Legend:
Experiment in all cases: Kinase panel (mobility shift)
Format in all cases: biochemical
[1] = target: T1, TAOK2 (Homo sapiens, UniProt Q9UL54)
T1 sequence (Q9UL54 1-1235): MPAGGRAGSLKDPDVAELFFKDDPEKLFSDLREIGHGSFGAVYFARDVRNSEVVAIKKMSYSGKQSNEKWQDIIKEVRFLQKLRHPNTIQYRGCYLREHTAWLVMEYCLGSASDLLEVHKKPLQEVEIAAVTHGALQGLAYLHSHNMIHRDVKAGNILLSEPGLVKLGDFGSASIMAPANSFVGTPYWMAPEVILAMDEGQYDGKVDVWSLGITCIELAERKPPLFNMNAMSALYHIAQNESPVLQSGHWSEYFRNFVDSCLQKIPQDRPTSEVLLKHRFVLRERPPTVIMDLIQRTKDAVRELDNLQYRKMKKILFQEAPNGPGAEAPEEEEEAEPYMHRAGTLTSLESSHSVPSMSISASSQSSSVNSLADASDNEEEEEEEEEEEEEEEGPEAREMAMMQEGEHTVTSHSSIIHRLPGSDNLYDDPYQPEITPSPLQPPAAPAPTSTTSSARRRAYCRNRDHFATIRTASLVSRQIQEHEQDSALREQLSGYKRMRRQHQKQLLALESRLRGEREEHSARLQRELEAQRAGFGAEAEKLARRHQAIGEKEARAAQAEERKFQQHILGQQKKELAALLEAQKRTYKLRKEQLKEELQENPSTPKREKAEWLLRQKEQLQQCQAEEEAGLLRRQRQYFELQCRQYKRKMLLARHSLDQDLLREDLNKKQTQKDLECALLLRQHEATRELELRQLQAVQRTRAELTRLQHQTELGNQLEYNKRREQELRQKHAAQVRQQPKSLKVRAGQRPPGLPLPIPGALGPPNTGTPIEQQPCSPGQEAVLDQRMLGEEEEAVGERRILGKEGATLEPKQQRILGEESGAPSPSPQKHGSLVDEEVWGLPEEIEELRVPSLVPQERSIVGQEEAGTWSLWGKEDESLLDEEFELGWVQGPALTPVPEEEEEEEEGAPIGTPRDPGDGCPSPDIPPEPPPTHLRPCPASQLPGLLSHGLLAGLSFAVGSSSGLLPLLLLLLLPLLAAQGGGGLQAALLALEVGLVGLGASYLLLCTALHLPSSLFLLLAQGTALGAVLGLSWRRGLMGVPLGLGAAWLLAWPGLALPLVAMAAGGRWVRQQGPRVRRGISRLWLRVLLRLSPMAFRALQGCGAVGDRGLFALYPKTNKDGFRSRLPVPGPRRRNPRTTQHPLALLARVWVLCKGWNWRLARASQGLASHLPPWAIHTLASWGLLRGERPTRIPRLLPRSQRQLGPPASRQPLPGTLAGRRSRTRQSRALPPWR
Method in brief: (§1)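 Compound at 5 um + kinase + fluor-labeled substrate, standardized mix; rxn stopped; electrophoretic separation of product/substrate on chip; activity = product vs substrate peak fluorescence. Bins A ≥95%, B 90-94%, C 80-89%.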

[2] = target: HIPK3 (Homo sapiens, UniProt Q9H422)
Method in brief: as §1

[3] = target: P38-b (Homo sapiens, UniProt Q15759)
Method in brief: as §1

[4] = target: PDGFR-b (Homo sapiens, UniProt P09619)
Method in brief: as §1

[5] = target: T2, EPH-B2 (Homo sapiens, UniProt P29323); conditions: at 5 um
T2 sequence (P29323 19-1055): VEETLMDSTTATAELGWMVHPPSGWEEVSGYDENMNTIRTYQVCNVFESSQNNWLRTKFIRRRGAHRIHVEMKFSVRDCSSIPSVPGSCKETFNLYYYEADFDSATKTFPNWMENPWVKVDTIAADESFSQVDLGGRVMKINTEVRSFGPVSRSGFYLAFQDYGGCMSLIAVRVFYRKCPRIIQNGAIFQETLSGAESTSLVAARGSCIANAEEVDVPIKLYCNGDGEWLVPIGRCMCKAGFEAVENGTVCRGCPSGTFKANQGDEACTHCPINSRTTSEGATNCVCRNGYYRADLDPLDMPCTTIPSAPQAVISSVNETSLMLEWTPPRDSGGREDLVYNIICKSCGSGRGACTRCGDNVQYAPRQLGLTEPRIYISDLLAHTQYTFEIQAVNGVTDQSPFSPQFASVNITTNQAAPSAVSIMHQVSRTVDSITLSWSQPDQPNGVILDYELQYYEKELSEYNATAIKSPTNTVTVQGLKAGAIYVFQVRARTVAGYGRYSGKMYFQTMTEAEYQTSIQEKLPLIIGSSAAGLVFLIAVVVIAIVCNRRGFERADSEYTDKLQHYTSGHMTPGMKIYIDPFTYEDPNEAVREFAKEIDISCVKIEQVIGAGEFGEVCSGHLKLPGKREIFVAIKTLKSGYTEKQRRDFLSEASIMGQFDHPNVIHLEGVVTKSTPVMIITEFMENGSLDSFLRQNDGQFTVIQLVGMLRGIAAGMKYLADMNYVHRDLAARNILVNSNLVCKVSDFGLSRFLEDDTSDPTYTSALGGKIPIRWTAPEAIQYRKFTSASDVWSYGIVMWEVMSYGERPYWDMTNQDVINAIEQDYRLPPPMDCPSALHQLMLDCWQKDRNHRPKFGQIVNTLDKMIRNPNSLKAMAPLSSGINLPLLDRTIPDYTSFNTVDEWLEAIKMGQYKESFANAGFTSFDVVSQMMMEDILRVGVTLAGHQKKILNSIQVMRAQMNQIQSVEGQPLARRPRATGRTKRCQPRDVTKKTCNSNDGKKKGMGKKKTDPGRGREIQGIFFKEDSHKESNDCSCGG
Method in brief: as §1

[6] = target: RIPK2 (Homo sapiens, UniProt O43353)
Method in brief: as §1

Sequence of HIPK3 (Q9H422 whole entry, species assumed): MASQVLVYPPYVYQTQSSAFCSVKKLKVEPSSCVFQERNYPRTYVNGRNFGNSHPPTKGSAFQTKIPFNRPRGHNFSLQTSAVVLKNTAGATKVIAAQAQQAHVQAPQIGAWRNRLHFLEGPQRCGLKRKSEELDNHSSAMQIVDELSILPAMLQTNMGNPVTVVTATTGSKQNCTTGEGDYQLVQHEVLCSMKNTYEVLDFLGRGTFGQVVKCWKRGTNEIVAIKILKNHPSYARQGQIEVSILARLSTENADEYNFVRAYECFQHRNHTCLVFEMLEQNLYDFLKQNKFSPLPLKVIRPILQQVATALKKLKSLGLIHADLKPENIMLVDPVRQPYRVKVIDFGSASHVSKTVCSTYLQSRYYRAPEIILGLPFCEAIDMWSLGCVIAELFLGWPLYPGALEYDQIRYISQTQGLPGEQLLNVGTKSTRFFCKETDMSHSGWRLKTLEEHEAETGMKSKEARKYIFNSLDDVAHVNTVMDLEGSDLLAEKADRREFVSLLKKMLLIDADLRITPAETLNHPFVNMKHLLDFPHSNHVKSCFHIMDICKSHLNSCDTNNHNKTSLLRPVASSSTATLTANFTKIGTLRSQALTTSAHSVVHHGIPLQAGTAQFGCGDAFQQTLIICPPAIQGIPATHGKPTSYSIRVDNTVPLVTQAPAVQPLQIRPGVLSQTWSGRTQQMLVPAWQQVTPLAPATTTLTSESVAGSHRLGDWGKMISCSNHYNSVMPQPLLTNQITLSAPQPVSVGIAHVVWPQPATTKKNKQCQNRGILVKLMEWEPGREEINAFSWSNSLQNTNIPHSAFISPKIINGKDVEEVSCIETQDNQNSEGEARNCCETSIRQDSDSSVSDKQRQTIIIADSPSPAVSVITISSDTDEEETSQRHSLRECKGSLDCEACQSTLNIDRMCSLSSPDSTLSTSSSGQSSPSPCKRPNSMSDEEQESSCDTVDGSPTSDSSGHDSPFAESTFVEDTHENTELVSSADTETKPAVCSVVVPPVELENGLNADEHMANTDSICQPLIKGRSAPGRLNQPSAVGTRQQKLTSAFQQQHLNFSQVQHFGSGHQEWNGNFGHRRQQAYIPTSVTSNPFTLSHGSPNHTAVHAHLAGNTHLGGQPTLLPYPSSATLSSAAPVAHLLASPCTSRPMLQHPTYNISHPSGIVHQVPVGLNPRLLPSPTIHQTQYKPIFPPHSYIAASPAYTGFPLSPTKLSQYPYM
Sequence of PDGFR-b (P09619 33-1106, species assumed): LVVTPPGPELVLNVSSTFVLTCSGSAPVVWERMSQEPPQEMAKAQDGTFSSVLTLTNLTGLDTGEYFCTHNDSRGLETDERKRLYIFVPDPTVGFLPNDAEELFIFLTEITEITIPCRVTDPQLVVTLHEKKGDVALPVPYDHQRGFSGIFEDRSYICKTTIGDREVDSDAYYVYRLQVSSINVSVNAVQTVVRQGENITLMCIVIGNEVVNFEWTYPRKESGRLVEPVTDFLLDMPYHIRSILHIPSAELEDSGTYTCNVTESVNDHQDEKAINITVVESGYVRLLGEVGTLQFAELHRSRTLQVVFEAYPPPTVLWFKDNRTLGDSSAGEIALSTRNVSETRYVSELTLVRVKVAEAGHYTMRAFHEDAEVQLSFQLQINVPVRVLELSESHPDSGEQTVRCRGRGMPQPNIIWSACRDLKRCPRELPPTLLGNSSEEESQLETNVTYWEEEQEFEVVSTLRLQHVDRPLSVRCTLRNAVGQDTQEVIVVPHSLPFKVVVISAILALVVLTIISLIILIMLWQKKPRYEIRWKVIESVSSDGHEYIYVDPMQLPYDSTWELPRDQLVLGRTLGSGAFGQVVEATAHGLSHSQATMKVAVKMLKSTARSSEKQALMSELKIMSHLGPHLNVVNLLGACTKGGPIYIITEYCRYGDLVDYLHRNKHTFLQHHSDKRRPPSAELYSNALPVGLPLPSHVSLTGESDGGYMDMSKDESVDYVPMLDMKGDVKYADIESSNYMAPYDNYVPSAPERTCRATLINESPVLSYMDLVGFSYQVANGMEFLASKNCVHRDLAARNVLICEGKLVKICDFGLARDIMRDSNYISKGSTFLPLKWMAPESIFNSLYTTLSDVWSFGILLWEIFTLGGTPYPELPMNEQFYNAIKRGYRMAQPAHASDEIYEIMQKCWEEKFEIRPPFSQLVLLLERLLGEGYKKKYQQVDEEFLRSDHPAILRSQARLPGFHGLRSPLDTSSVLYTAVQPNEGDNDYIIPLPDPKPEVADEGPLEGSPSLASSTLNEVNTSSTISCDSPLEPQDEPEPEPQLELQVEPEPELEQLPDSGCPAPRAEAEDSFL
Sequence of RIPK2 (O43353 whole entry, species assumed): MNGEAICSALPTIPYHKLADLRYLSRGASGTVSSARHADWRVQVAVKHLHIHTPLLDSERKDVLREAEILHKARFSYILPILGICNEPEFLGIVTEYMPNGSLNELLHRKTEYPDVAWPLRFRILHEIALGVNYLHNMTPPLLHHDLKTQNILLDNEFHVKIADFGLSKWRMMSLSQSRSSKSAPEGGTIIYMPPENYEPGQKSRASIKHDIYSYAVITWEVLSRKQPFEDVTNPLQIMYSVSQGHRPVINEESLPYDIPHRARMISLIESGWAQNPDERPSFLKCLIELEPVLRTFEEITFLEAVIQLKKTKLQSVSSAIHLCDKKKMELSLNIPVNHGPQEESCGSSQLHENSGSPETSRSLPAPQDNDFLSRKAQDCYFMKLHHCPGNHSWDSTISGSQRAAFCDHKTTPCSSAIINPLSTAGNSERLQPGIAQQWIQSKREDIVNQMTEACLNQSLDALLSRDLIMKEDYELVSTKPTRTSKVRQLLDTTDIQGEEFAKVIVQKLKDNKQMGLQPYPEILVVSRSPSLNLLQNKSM
Sequence of P38-b (Q15759 whole entry, species assumed): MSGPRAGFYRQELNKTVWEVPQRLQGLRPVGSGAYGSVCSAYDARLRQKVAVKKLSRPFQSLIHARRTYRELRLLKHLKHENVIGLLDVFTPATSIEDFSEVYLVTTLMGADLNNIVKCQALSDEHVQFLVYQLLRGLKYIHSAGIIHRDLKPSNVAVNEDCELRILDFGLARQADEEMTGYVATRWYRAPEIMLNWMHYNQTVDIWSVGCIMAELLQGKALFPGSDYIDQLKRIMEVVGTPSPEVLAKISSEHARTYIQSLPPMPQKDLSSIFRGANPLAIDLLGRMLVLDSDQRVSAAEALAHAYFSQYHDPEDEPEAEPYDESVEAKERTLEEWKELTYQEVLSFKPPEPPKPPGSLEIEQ

SMILES | inhibition at 5 µM [1] [%] | inhibition at 5 µM [2] [%] | inhibition at 5 µM [3] [%] | inhibition at 5 µM [4] [%] | inhibition of kinase activity, EPH-B2 [5] | inhibition at 5 µM [6] [%]
CNC(=O)c1cc(Oc2ccc(NC(=O)c3nc(OC)oc3-c3ccc(F)cc3)cc2F)ccn1 [Compound 15] | < 50 | 50 to 79 | < 50 | < 50 | D (category D for 50-79) | 80 to 89
CNC(=O)c1cc(Oc2ccc(NC(=O)c3nc(SC)oc3-c3ccc(F)cc3Cl)cc2)ccn1 [Compound 3] | < 50 | < 50 | < 50 | < 50 | E (category E is less than 50%) | 90 to 94
CSc1nc(C(=O)Nc2ccc(Oc3ccnc(C(=O)NCCN(C)C)c3)c(F)c2)c(-c2ccc(F)cc2)o1 [Compound 41] | < 50 | < 50 | 80 to 89 | < 50 | D (category D for 50-79) | 80 to 89
CNC(=O)c1cc(Oc2ccc(NC(=O)c3nc(NC)oc3-c3ccc(F)s3)cc2F)ccn1 [Compound 17] | < 50 | < 50 | < 50 | < 50 | E (category E is less than 50%) | < 50
COc1nc(C(=O)Nc2ccc(Oc3ccnc(C(=O)NCC(F)(F)F)c3)c(F)c2)c(-c2ccc(F)cc2)o1 [Compound 43] | < 50 | < 50 | < 50 | < 50 | E (category E is less than 50%) | < 50
CNC(=O)c1cc(Oc2ccc(NC(=O)c3nc(COC)oc3-c3ccc(F)cc3)cc2F)ccn1 [Compound 30] | 50 to 79 | 90 to 94 | 50 to 79 | < 50 | B (B=90%-94% at 5 um) | 80 to 89
CSc1nc(C(=O)Nc2ccc(Oc3ccnc(C(=O)NC4COC4)c3)c(F)c2)c(-c2ccc(F)c(F)c2)o1 [Compound 37] | < 50 | < 50 | < 50 | < 50 | E (category E is less than 50%) | < 50
CNC(=O)c1cc(Oc2ccc(NC(=O)c3nc(SC)oc3-c3ccc(Cl)s3)cc2)ccn1 [Compound 5] | < 50 | < 50 | < 50 | < 50 | E (category E is less than 50%) | 50 to 79
[2H]C([2H])([2H])NC(=O)c1cc(Oc2ccc(NC(=O)c3nc(SC)oc3-c3ccc(F)c(F)c3)cc2F)ccn1 [Compound 33] | < 50 | 50 to 79 | < 50 | < 50 | E (category E is less than 50%) | 50 to 79
CNC(=O)c1cc(Oc2ccc(NC(=O)c3nc(SC)oc3-c3ccc(F)cc3F)cc2F)ccn1 [Compound 12] | < 50 | 50 to 79 | < 50 | < 50 | D (category D for 50-79) | 90 to 94
CSc1nc(C(=O)Nc2ccc(Oc3ccnc(C(=O)NC4CCN(C)CC4)c3)c(F)c2)c(-c2ccc(F)cc2)o1 [Compound 42] | < 50 | 50 to 79 | 80 to 89 | < 50 | E (category E is less than 50%) | 50 to 79
CSc1nc(C(=O)Nc2ccc(Oc3ccnc(N)c3Cl)c(F)c2)c(-c2ccc(F)cc2)o1 [Compound 1] | < 50 | < 50 | < 50 | < 50 | E (category E is less than 50%) | < 50
CSc1nc(C(=O)Nc2ccc(Oc3ccnc(C(=O)NC4COC4)c3)c(F)c2)c(-c2ccc(F)s2)o1 [Compound 28] | < 50 | < 50 | < 50 | < 50 | E (category E is less than 50%) | < 50
CNC(=O)c1ccc(Oc2ccc(NC(=O)c3nc(Cl)oc3-c3ccc(F)cc3)c(F)c2)cn1 [Compound 36] | < 50 | 50 to 79 | < 50 | < 50 | E (category E is less than 50%) | 50 to 79
CSc1nc(C(=O)Nc2ccc(Oc3ccnc(C(=O)NC4CNC4)c3)c(F)c2)c(-c2ccc(F)cc2)o1 [Compound 29] | 50 to 79 | 80 to 89 | 80 to 89 | < 50 | E (category E is less than 50%) | 80 to 89
CNC(=O)c1cc(Oc2ccc(NC(=O)c3nc(SC)oc3-c3ccc(F)c(F)c3)cc2)ccn1 [Compound 4] | < 50 | 50 to 79 | 50 to 79 | < 50 | E (category E is less than 50%) | 80 to 89
CNC(=O)c1cc(Oc2ccc(NC(=O)c3nc(SC)oc3-c3ccc(OC)cc3)cc2)ccn1 [Compound 7] | < 50 | < 50 | < 50 | < 50 | E (category E is less than 50%) | < 50
[2H]C([2H])([2H])NC(=O)c1cc(Oc2ccc(NC(=O)c3nc(SC)oc3-c3ccc(F)s3)cc2F)ccn1 [Compound 35] | < 50 | < 50 | < 50 | < 50 | D (category D for 50-79) | 50 to 79
